From PubChem BioAssay (NCI)
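Briefly, cells in 96-well plates were exposed to five compound concentrations for 48 h, and endpoints were estimated by linear interpolation. Here, GI50 denotes the concentration required for 50% inhibition of growth. Definition used: TGI = concentration required for complete inhibition of growth.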

Experiments:
Assay in all cases: NCI-60 cell line screen, 48 h
HL-60(TB) leukemia = tested on: HL-60(TB) leukemia
SK-OV-3 ovarian = tested on: SK-OV-3 ovarian
OVCAR-3 ovarian = tested on: OVCAR-3 ovarian
SN12C renal = tested on: SN12C renal
SNB-75 CNS = tested on: SNB-75 CNS
MOLT-4 leukemia = tested on: MOLT-4 leukemia
PC-3 prostate = tested on: PC-3 prostate
CCRF-CEM leukemia = tested on: CCRF-CEM leukemia
OVCAR-4 ovarian = tested on: OVCAR-4 ovarian
NCI-H226 lung = tested on: NCI-H226 lung

Row | Structure (SMILES) | TGI (HL-60(TB) leukemia) [µM] | TGI (SK-OV-3 ovarian) [µM] | TGI (OVCAR-3 ovarian) [µM] | TGI (SN12C renal) [µM] | TGI (SNB-75 CNS) [µM] | TGI (MOLT-4 leukemia) [µM] | TGI (PC-3 prostate) [µM] | TGI (CCRF-CEM leukemia) [µM] | TGI (OVCAR-4 ovarian) [µM] | TGI (NCI-H226 lung) [µM] | GI50 (HL-60(TB) leukemia) [µM] | GI50 (OVCAR-3 ovarian) [µM] | GI50 (SN12C renal) [µM] | GI50 (MOLT-4 leukemia) [µM] | GI50 (PC-3 prostate) [µM] | GI50 (NCI-H226 lung) [µM] | GI50 (OVCAR-4 ovarian) [µM] | GI50 (SK-OV-3 ovarian) [µM] | GI50 (SNB-75 CNS) [µM] | GI50 (CCRF-CEM leukemia) [µM]
1 | OCC1OC(OCC(O)C(O)C(O)C(/C=N/Nc2ccccc2)=N/Nc2ccccc2)C(O)C(O)C1O (stereo not given) | > 100 | > 100 | > 100 | > 100 | > 100 | > 100 | > 100 | > 100 |  |  |  |  |  |  |  |  |  |  |  | 
2 | COc1ccc2c(c1)[n+]([O-])c(-c1ccccc1)c(N)[n+]2[O-] | > 100 | > 100 | > 100 | > 100 | > 100 | > 100 |  | > 100 | > 100 | > 100 |  |  |  |  |  |  |  |  |  | 
3 | COC(=O)C1=C(C(=O)OC)C23CC1C1C(C(=O)OC)=C(C(=O)OC)C12C1C=CC3C2C(=O)OC(=O)C21 (stereo not given) | > 100 |  | 17.6 | > 100 | 47.7 | > 100 |  | > 100 | > 100 |  |  |  |  |  |  |  |  |  |  | 
4 | O=C1c2ccccc2C(=O)c2c(NCCNCCO)ccc(O)c21 | 8.77 | 13.8 | 19.5 | 12.8 | 15.7 | 7.49 |  | 17.3 | 6.53 | 6.56 |  |  |  |  |  |  |  |  |  | 
5 | C=CC(C)(O)/C=C/C=C(\C)C(CC1OC1(C)C)OC(=O)/C(C)=C\C (stereo not given) | > 100 | > 100 | > 100 | > 100 | > 100 | > 100 | > 100 |  | > 100 |  |  |  |  |  |  |  |  |  |  | 
6 | CN[C@@H](C)[C@@H](N)c1ccccc1 |  | > 100 | > 100 | > 100 | > 100 | > 100 |  | > 100 |  | > 100 |  |  |  |  |  |  |  |  |  | 
7 | C[C@]12CCc3nonc3C1CC[C@@H]1C2CC[C@]2(C)NC(=O)CCC12 (stereo not given in full) | > 100 | > 100 | > 100 | > 100 | > 100 | > 100 |  | > 100 | > 100 | > 100 |  |  |  |  |  |  |  |  |  | 
8 | Oc1ccc(O)c(-c2cc(-c3ccccc3)nn2-c2ccccc2)c1 | > 100 |  | > 100 | 45 |  | > 100 | > 100 |  |  | 51.4 | 24.9 | 22.8 | 17 | 60.5 | 16.7 | 18.7 |  |  |  | 
9 | Cn1c(O)c(C(/C=C/c2ccccc2)=NCCN=C(/C=C/c2ccccc2)c2c(O)n(C)c(=O)n(C)c2=O)c(=O)n(C)c1=O | 27.4 | > 50 | > 50 | > 50 | > 50 | > 50 |  | > 50 | > 50 | > 50 | 9.14 | 21 | 16.5 | 15.8 |  | 24.6 | 13.9 | 19.9 | 17.6 | 12.4
10 | COc1ccc2nc3cc(Cl)ccc3c(N3CCN(c4ccnc(N5CCOCC5)n4)CC3)c2c1 | > 100 | > 100 | 57.3 | > 100 | 65.3 | > 100 | > 100 | > 100 |  | > 100 | 8.12 | 4.14 | > 100 | 6.24 | 98.1 | > 100 |  | > 100 | 10.6 | 2.49
